Assay results published in US20250011365A1, “ECHINOCANDIN-BASED DRUG, AND PREPARATION METHOD THEREFOR AND USE THEREOF” (Shenzhen Sungening Biological Co., Ltd, priority 2023, published 2025).
Values after ≈ are worked out from the molar mass of the structure shown. Numbered stars: 1 amine (or outer) side, 2 acyl side, 3 side chain; on linkers, the order of the positions; unused ones are H or OH. Bridge positions count the residues as written; N and C are the ends. Square brackets hold non-standard residues; d marks the D form. Peptide text beside a SMILES is read from it. * marks the point of attachment. Orn(4R-OH,5R-OCH2CH2NMe3+) = C[N+](C)(C)CCO[C@@H](N[*:3])[C@H](O)C[C@H](N[*:1])C(=O)[*:2]; pTerphenylCO(4''-OnC5H11) = CCCCCOc1ccc(-c2ccc(-c3ccc(C(=O)*)cc3)cc2)cc1; hTyr(3S-OH,4S-OH) = N[C@H](C(=O)O)[C@H](O)[C@@H](O)c1ccc(O)cc1; Pro(3S-OH,4S-Me) = C[C@H]1CN[C@H](C(=O)O)[C@H]1O; X3 = CCCCCOc1ccc(C#Cc2ccc3cc(C(=O)*)ccc3c2)cc1F; Hyp = O=C(O)[C@@H]1C[C@@H](O)CN1

Legend:
[1] = system: Aspergillus fumigatus ATCC 204305; assay: MEC assay, Aspergillus standard strain (CLSI M38-A2); type: cell-based; conditions: 21-26 h, 28° C.
Method: After gradient dilution of test compounds, an MIC assay was performed on a Candida standard strain, and an MEC assay was performed on an Aspergillus standard strain.
The colonies on the plate were covered with 0.85% physiological saline (1 mL) or sterile water (polysorbate 20 was added to a final concentration of 0.1%-0.01%). […] The resuspension of spore hyphae was transferred to a sterile test tube, and left to stand for 3-5 min to precipitate heavier particles. The homogeneous suspension on the upper layer was transferred to a new sterile test tube, and the tube was capped closely, and subjected to vortex shaking for 15 s (note: the suspension can produce an aerosol when the cap is reopened). The concentration of the suspension was adjusted to an OD value of 0.09-0.13 at 530 nm by using a spectrophotometer. […] Within 2 h after dilution, 100 μL of the diluted suspension was added to each well in a 96-well plate (the concentration of spores in the final drug sensitive plate should be 0.4×10^4-5×10^4 CFU/mL).
In order to accurately determine MEC value, vortex oscillation should not be allowed before reading the plate.

[2] = system: Cryptococcus neoformans ATCC 208821; assay: MIC assay, yeast-type fungi (CLSI M27-A3); type: cell-based; conditions: ATCC208821, 24 h, 35° C.
[3] = system: Pichia guilliermondii ATCC 6260; assay: MIC assay, yeast-type fungi (CLSI M27-A3); type: cell-based; conditions: Meyerozyma guilliermondii, ATCC6260, 24 h, 35° C.
Method: (§1) After gradient dilution of test compounds, an MIC assay was performed on a Candida standard strain, and an MEC assay was performed on an Aspergillus standard strain. […] A cryopreserved strain was passaged at least 2 times. A single colony was picked and resuspended in a physiological saline or sterile water tube, and the tube was subjected to vortex shaking. The Candida suspension was adjusted to 0.5 McF (1×10^6-5×10^6 CFU/mL) at a wavelength of 530 nm by using a spectrophotometer. After being diluted 50 times with physiological saline, the Candida suspension was diluted 20 times with 1×RPMI 1640 broth (1×10^3-5×10^3 CFU/mL). 10 μL of the diluted Candida suspension was coated on an SDA plate for colony counting, with a range of about 10-50 single colonies. After a prepared drug sensitive plate was completely dissolved at room temperature, the Candida suspension was added to the 96-well plate by using a multi-channel pipettor at 100 μL/well. At this time, the concentration of Candida in each well should be 0.5×10^3-2.5×10^3 CFU/mL. A yeast-type fungus assay plate was placed in an incubator, and incubated for 24 h at 35° C. and 85% humidity, and then the MIC values were read. For echinocandin-based drugs, Aspergillus was incubated for 21-26 h at 28° C., and then the MEC results were read. Yeast-type fungi: A 96-well plate was attached with a disposable parafilm, shaken for uniformly mixing, and observed with naked eyes by using a plate reader microscope. […] Pictures were taken and saved by using an automated plate reader.

[4] = system: Candida albicans ATCC 76485; assay: MIC assay, Candida standard strain (CLSI M27-A3); type: cell-based; conditions: ATCC76485, 24 h, 35° C.
Method: as §1

[5] = system: C. parapsilosis ATCC 22019; assay: MIC assay, Candida standard strain (CLSI M27-A3); type: cell-based; conditions: Lodderomyces parapsilosis, ATCC22019; C. parapsilosis ATCC 22019 (quality-control strain); 24 h, 35° C.
Method: as §1

[6] = system: Candida albicans CICC 1943; assay: MIC assay, Candida standard strain (CLSI M27-A3); type: cell-based; conditions: CICC1943, 24 h, 35° C.
Method: as §1

C. glabrata ATCC 15126 = assay: MIC assay, Candida standard strain (CLSI M27-A3); type: cell-based; conditions: Nakaseomyces glabratus, ATCC15126, 24 h, 35° C.
Method: as §1

[7] = system: Candida albicans ATCC 90029; assay: MIC assay, Candida standard strain (CLSI M27-A3); type: cell-based; conditions: ATCC90029, 24 h, 35° C.
Method: as §1

[8] = system: Candida albicans ATCC MYA-574; assay: MIC assay, Candida standard strain (CLSI M27-A3); type: cell-based; conditions: 24 h, 35° C.
Method: as §1

[9] = system: Candida albicans ATCC 90028; assay: MIC assay, Candida standard strain (CLSI M27-A3); type: cell-based; conditions: ATCC90028, 24 h, 35° C., >50% growth inhibition
Method: as §1

[10] = system: Candida albicans ATCC 64124; assay: MIC assay, Candida standard strain (CLSI M27-A3); type: cell-based; conditions: ATCC64124, 24 h, 35° C.
Method: as §1

[11] = system: Candida albicans ATCC 14053; assay: MIC assay, Candida standard strain (CLSI M27-A3); type: cell-based; conditions: ATCC14053, 24 h, 35° C.
Method: as §1

[12] = system: Candida albicans ATCC MYA-1023; assay: MIC assay, Candida standard strain (CLSI M27-A3); type: cell-based; conditions: 24 h, 35° C.
Method: as §1

C. tropicalis ATCC 750 = assay: MIC assay, Candida standard strain (CLSI M27-A3); type: cell-based; conditions: ATCC750, 24 h, 35° C.
Method: as §1

C. krusei ATCC 6258 = assay: MIC assay, Candida standard strain (CLSI M27-A3); type: cell-based; conditions: Pichia kudriavzevii, ATCC6258; C. krusei ATCC 6258 (quality-control strain); 24 h, 35° C.
Method: as §1

[13] = system: Candida albicans CMCC 98001; assay: MIC assay, Candida standard strain (CLSI M27-A3); type: cell-based; conditions: CMCC98001, 24 h, 35° C.
Method: as §1

[14] = system: Candida albicans ATCC 18804; assay: MIC assay, Candida standard strain (CLSI M27-A3); type: cell-based; conditions: ATCC18804, 24 h, 35° C.
Method: as §1

[15] = system: Candida albicans ATCC 10231; assay: MIC assay, Candida standard strain (CLSI M27-A3); type: cell-based; conditions: ATCC10231, 24 h, 35° C., >50% growth inhibition
Method: as §1

[16] = system: Candida albicans ATCC MYA-427; assay: MIC assay, Candida standard strain (CLSI M27-A3); type: cell-based; conditions: 24 h, 35° C.
Method: as §1

[17] = system: Candida albicans ATCC MYA-4788; assay: MIC assay, Candida standard strain (CLSI M27-A3); type: cell-based; conditions: 24 h, 35° C.
Method: as §1

[18] = system: Candida albicans ATCC MYA-2876; assay: MIC assay, Candida standard strain (CLSI M27-A3); type: cell-based; conditions: 24 h, 35° C.
Method: as §1

[19] = Study on pharmacokinetic properties in rats after intravenous injection; conditions: SD, rat, in vivo, 5 mg/kg

Structure (SMILES) | MEC [1] [µg/mL] | MIC [2] [µg/mL] | MIC [3] [µg/mL] | MIC [4] [µg/mL] | MIC [5] [µg/mL] | MIC [6] [µg/mL] | MIC (C. glabrata ATCC 15126) [µg/mL] | MIC [7] [µg/mL] | MIC [8] [µg/mL] | MIC [9] [µg/mL] | MIC [10] [µg/mL] | MIC [11] [µg/mL] | MIC [12] [µg/mL] | MIC (C. tropicalis ATCC 750) [µg/mL] | MIC (C. krusei ATCC 6258) [µg/mL] | MIC [13] [µg/mL] | MIC [14] [µg/mL] | MIC [15] [µg/mL] | MIC [16] [µg/mL] | MIC [17] [µg/mL] | other results
CCCCCOc1ccc(-c2ccc(-c3ccc(C(=O)N[C@H]4C[C@@H](O)[C@@H](OCC[N+](C)(C)C)NC(=O)[C@@H]5[C@@H](O)[C@@H](C)CN5C(=O)[C@H]([C@@H](C)O)NC(=O)[C@H]([C@H](O)[C@@H](O)c5ccc(O)cc5)NC(=O)[C@@H]5C[C@@H](O)CN5C(=O)[C@H]([C@@H](C)O)NC4=O)cc3)cc2)cc1 [Rezafungin, rezafungin, reference compound] ({pTerphenylCO(4''-OnC5H11)}-[Orn(4R-OH,5R-OCH2CH2NMe3+)]T[Hyp][hTyr(3S-OH,4S-OH)]T[Pro(3S-OH,4S-Me)]; lactam 1-C) | ≤0.015 | 16 | 0.25 | ≤ 0.015 | 0.5 | ≤ 0.015 | 0.06 | ≤ 0.015 | ≤ 0.015 | ≤ 0.015 | ≤ 0.015 | ≤ 0.015 | ≤ 0.015 | ≤ 0.015 | 0.03 | ≤ 0.015 | ≤ 0.015 | ≤ 0.015 | ≤ 0.015 | ≤ 0.015 | MIC [18]: ≤ 0.015 µg/mL; AUC(0-inf) [19]: 104000 ng·h/mL; AUC(0-t) [19]: 89000 ng·h/mL; Cmax [19]: 4750 ng/mL; MRT last [19]: 20.2 h; Vd [19]: 1.9 L/kg; clearance [19]: 0.8 mL/min/kg; half-life [19]: 27.5 h
CCCCCOc1ccc(C#Cc2ccc3cc(C(=O)N[C@H]4C[C@@H](O)[C@@H](OCC[N+](C)(C)C)NC(=O)[C@@H]5[C@@H](O)[C@@H](C)CN5C(=O)[C@H]([C@@H](C)O)NC(=O)[C@H]([C@H](O)[C@@H](O)c5ccc(O)cc5)NC(=O)[C@@H]5C[C@@H](O)CN5C(=O)[C@H]([C@@H](C)O)NC4=O)ccc3c2)cc1F [Example 10] (X3-[Orn(4R-OH,5R-OCH2CH2NMe3+)]T[Hyp][hTyr(3S-OH,4S-OH)]T[Pro(3S-OH,4S-Me)]; lactam 1-C) | ≤0.015 | 8 | 0.25 | ≤ 0.015 | 0.5 | 0.03 | 0.06 | ≤ 0.015 | ≤ 0.015 | ≤ 0.015 | ≤ 0.015 | ≤ 0.015 | ≤ 0.015 | ≤ 0.015 | 0.06 | ≤ 0.015 | ≤ 0.015 | 0.03 | 0.03 | ≤ 0.015 | MIC [18]: ≤ 0.015 µg/mL
CC[C@H](C)C[C@H](C)CCCCCCCCC(=O)N[C@H]1C[C@@H](O)[C@@H](NCCN)NC(=O)[C@@H]2[C@@H](O)CCN2C(=O)[C@H]([C@H](O)CCN)NC(=O)[C@H]([C@H](O)[C@@H](O)c2ccc(O)cc2)NC(=O)[C@@H]2C[C@@H](O)CN2C(=O)[C@H]([C@@H](C)O)NC1=O [Caspofungin, reference compound] | 0.25 | 16 (≈ 14.6 µM) | 0.12 (≈ 0.11 µM) | 0.06 (≈ 0.0549 µM) | 0.5 (≈ 0.457 µM) | 0.06 (≈ 0.0549 µM) | 0.12 (≈ 0.11 µM) | 0.06 (≈ 0.0549 µM) | ≤ 0.015 | 0.12 (≈ 0.11 µM) | 0.12 (≈ 0.11 µM) | 0.03 (≈ 0.0274 µM) | 0.06 (≈ 0.0549 µM) | 0.06 (≈ 0.0549 µM) | 0.25 (≈ 0.229 µM) | 0.06 (≈ 0.0549 µM) | 0.06 (≈ 0.0549 µM) | 0.12 (≈ 0.11 µM) | 0.12 (≈ 0.11 µM) | 0.06 (≈ 0.0549 µM) | MIC [18]: 0.06 µg/mL (≈ 0.0549 µM)
